Assays:
[1] = Cytotoxicity against human HepG2(2.2.15) cells after 72 hrs by MTT assay; format: cell-based
Hepatitis B virus [2] = experiment: Inhibition of HBV HBsAg secretion in HepG2(2.2.15) cells after 72 hrs by ELISA method; format: functional, organism-based; conditions: HepG2 2.2.15, 72 h
[3] = Selectivity index, ratio of CC50 for human HepG2(2.2.15) cells to IC50 for inhibition of HBV HBsAg secretion in HepG2(2.2.15) cells; format: functional
Hepatitis B virus [4] = experiment: Inhibition of HBV HBeAg secretion in HepG2(2.2.15) cells after 72 hrs by ELISA method; format: functional, organism-based; conditions: HepG2 2.2.15, 72 h
Hepatitis B virus [5] = experiment: Inhibition of HBV DNA replication in HepG2(2.2.15) cells exposed to fresh medium supplemented with compound every other day for additional 5 days by real-time PCR-fluorescent probing method; format: functional, organism-based; conditions: HepG2 2.2.15, 120 h
[6] = Selectivity index, ratio of CC50 for human HepG2(2.2.15) cells to IC50 for inhibition of HBV DNA replication in HepG2(2.2.15) cells; format: functional
[7] = Selectivity index, ratio of CC50 for human HepG2(2.2.15) cells to IC50 for inhibition of HBV HBeAg secretion in HepG2(2.2.15) cells; format: functional

| SMILES | CC50 at 72 h [1] | IC50 (Hepatitis B virus [2]) | Ratio CC50/IC50 [3] | IC50 (Hepatitis B virus [4]) | IC50 (Hepatitis B virus [5]) | Ratio CC50/IC50 [6] | Ratio CC50/IC50 [7] |
| --- | --- | --- | --- | --- | --- | --- | --- |
| O=C(OCc1cccc2c1CCOC2=O)c1cc2ccccc2o1 | 0.83 mM | 1.63 mM | <1 | > 2.67 mM | 540 µM | 1.5 | – |
| O=Cc1cccc2c1CCOC2=O | 1.76 mM | 1.3 mM | 1.4 | 1.14 mM | 760 µM | 2.3 | 1.5 |
| O=C1OCCc2c(CO)cccc21 | > 3.8 mM | 2.7 mM | >1.4 | 1.46 mM | 170 µM | >22.4 | >2.6 |
| O=C(O)c1cccc2c1CCOC2=O | > 4.54 mM | 3.18 mM | >1.4 | 2.95 mM | 390 µM | >11.6 | >1.5 |
| NC(=O)c1cccc2c1CCOC2=O | > 3.29 mM | > 3.29 mM | – | > 3.29 mM | 820 µM | >4 | – |
| N=C(N)c1cccc2c1CCOC2=O | 2.05 mM | 2.24 mM | – | 2.84 mM | 380 µM | 5.4 | – |
| O=C1OCCc2c(/C=N\O)cccc21 | > 4 mM | > 4 mM | – | 2.33 mM | 360 µM | >11.1 | >1.7 |
| O=C1OCCc2c1cccc2C1OCCO1 | > 2.58 mM | > 2.58 mM | – | 2.18 mM | 570 µM | >4.5 | >1.2 |
| O=C1/C(=C/c2cccc3c2CCOC3=O)Oc2cc(O)ccc21 | > 1.81 mM | > 1.81 mM | – | > 1.81 mM | > 450 µM | – | – |
| O=C1OCCc2c(/C=C\c3ccccc3)cccc21 | > 2.16 mM | > 2.16 mM | – | > 2.16 mM | 80 µM | >27 | – |
| O=C1OCCc2c(/C=C/c3ccccc3)cccc21 | > 2.43 mM | > 2.43 mM | – | > 2.43 mM | 110 µM | >22.1 | – |
| O=C1OCCc2c(/C=N/Nc3ccc([N+](=O)[O-])cc3[N+](=O)[O-])cccc21 | > 1.65 mM | > 1.65 mM | – | 1.34 mM | > 410 µM | – | >1.2 |
| CC(=O)OCc1cccc2c1CCOC2=O | > 2.43 mM | 1.31 mM | >1.8 | > 2.43 mM | > 860 µM | – | – |
| CCCCCCCC(=O)OCc1cccc2c1CCOC2=O | > 3.45 mM | > 3.45 mM | – | > 3.45 mM | > 860 µM | – | – |
| CCC(CC)C(=O)OCc1cccc2c1CCOC2=O | 1.89 mM | > 2.59 mM | – | > 2.59 mM | > 650 µM | – | – |
| CCOCC(=O)OCc1cccc2c1CCOC2=O | > 3.68 mM | > 3.68 mM | – | > 3.68 mM | > 920 µM | – | – |
| O=C1OCCc2c(COC(=O)C3CCCCC3)cccc21 | > 1.84 mM | > 1.84 mM | – | > 1.84 mM | 26 µM | >70.8 | – |
| O=C(OCc1cccc2c1CCOC2=O)c1cccc([N+](=O)[O-])c1 | > 2.72 mM | > 2.72 mM | – | > 2.72 mM | > 680 µM | – | – |
| O=C(OCc1cccc2c1CCOC2=O)c1ccc([N+](=O)[O-])cc1 | > 2.26 mM | > 2.26 mM | – | > 2.26 mM | > 560 µM | – | – |
| O=C(O)c1ccccc1C(=O)OCc1cccc2c1CCOC2=O | 0.13 mM | 0.072 mM | 1.8 | 0.056 mM | 84 µM | 1.6 | 2.3 |
| O=C(OCc1cccc2c1CCOC2=O)c1ccco1 | > 2.35 mM | > 2.35 mM | – | > 2.35 mM | > 840 µM | – | – |
| O=C(OCc1cccc2c1CCOC2=O)c1cccnc1 | > 2.7 mM | > 2.7 mM | – | > 2.7 mM | > 680 µM | – | – |
| COc1cccc(/C=C/C(=O)OCc2cccc3c2CCOC3=O)c1 | > 1.62 mM | > 1.62 mM | – | 0.84 mM | 45 µM | >36 | >1.9 |
| O=C(OCc1cccc2c1CCOC2=O)c1cc2ccccc2[nH]1 | > 2.05 mM | > 2.05 mM | – | > 2.05 mM | 77 µM | >26.6 | – |
| O=C(OCc1cccc2c1CCOC2=O)c1cc(=O)c2ccccc2o1 | 2.57 mM | 2.3 mM | 1.1 | 1.81 mM | 520 µM | 4.9 | 1.4 |
| C[C@H](Cn1cnc2c(N)ncnc21)OCP(=O)(O)O [TENOFOVIR ANHYDROUS] | 1.85 mM | 2.32 mM | – | 1.94 mM | 0.5 µM | >3571.3 | – |

— ChEMBL document CHEMBL3396983, “Synthesis of erythrocentaurin derivatives as a new class of hepatitis B virus inhibitors” (Bioorg Med Chem Lett, 2015)
